Earlier results, collected in patent US6660719B2, “Inhibiting T-Cell proliferation” (BioCryst Pharmaceuticals Inc., priority 2001, dated 2003).
Where two headings read alike, the source gives them in different places.

Experiments:
[1] = test system: peripheral blood lymphocytes; details: 2′-deoxyguanosine alone, without PNP inhibition; species not given
Molt-4 cells = details: given with 2′-deoxyguanosine
CCRF-CEM cells = details: given with 2′-deoxyguanosine
T-cells = details: rats; given with 2′-deoxyguanosine
[2] = test system: peripheral blood lymphocytes; details: given to rats with 2′-deoxyguanosine
[3] = test system: peripheral blood lymphocytes; details: given to dogs with 2′-deoxyguanosine

## Nc1nc2c(ncn2[C@H]2C[C@H](O)[C@@H](CO)O2)c(=O)[nH]1 [2′-deoxyguanosine]
[1]
  cell counts (lymphopenia): did not significantly decrease cell counts

## Nc1nc2nc(N)[nH]c2c(=O)[nH]1 [8-Aminoguanine]
Molt-4 cells
  proliferation of human T-cells in cultures: inhibits the proliferation
CCRF-CEM cells
  proliferation of human T-cells in cultures: inhibits the proliferation

## Nc1nc2c(nc(N)n2[C@@H]2O[C@H](CO)[C@@H](O)[C@H]2O)c(=O)[nH]1 [8-Aminoguanosine]
T-cells
  levels of 2′-deoxyguanosine triphosphate (dGTP) in T-cells: increased levels
[2]
  peripheral blood lymphocytes: profound fall
[3]
  peripheral blood lymphocytes: profound fall
